Converted amounts (≈) assume the structure as drawn. Read-outs that look alike come from different tables or passages of the source.
Tests used:
Acinetobacter baumannii = experiment: Broth microdilution MIC (Example 12)
Pseudomonas aeruginosa [1] = experiment: Broth microdilution MIC (Example 12)
Klebsiella pneumoniae = settings: K. pneumoniae ATCC BAA-1705, QC organism; cited from earlier work
[2] = test system: Enterococcus spp. (E. faecalis, E. faecium); experiment: Broth microdilution MIC (Example 11); format: cell-based; settings: enterococci incl. vancomycin-resistant E. faecalis and E. faecium
Pseudomonas aeruginosa [3] = experiment: Broth microdilution MIC (Example 11); format: cell-based; settings: P. aeruginosa MMX 103 (ATCC 27853); QC
[4] = test system: beta-hemolytic streptococci (S. pyogenes, S. agalactiae); experiment: Broth microdilution MIC (Example 11); format: cell-based, Streptococcus pyogenes, Streptococcus agalactiae
[5] = test system: anaerobes (Bacteroides fragilis and Clostridium difficile); experiment: Agar dilution MIC (Example 11), group statement; format: cell-based; settings: B. fragilis and C. difficile QC isolates, C. difficile ribotypes incl. 027
Method: The test agents were stored at room temperature until assayed. All test agents were suspended and diluted in 100% dimethylsulfoxide (DMSO), and were ultimately tested at a final concentration of 0.06-64 μg/mL.
The susceptibility of anaerobic bacteria was determined by agar dilution using Brucella Agar (BD/BBL; Lot No. 5237692) supplemented with 5 μg/mL hemin (Sigma, St. Louis, MO; Lot No. 108K1088), 1 μg/mL Vitamin K1 and 5% (v/v) laked sheep blood (Cleveland Scientific, Bath, OH; Lot No. 322799).
MIC values for anaerobic bacteria were determined using a reference agar dilution method as described by CLSI (6). Organisms were grown at 35° C. in the Bactron II Anaerobic Chamber (Shel Lab, Cornelius, OR) for approximately 48 hr prior to the assay. Drug dilutions and drug-supplemented agar plates were prepared manually per CLSI (6). The plates were allowed to stand at room temperature for 1 hr to allow the agar surface to dry and pre-reduced for approximately 1 hr in the anaerobe chamber prior to inoculation. Each isolate was suspended to the equivalent of a 0.5 McFarland standard in Brucella broth using a turbidity meter (Dade Behring MicroScan, West Sacramento, CA). Each bacterial cell suspension was then diluted 1:10 in Brucella broth and transferred to wells in a stainless steel replicator block which was used to inoculate the test plates. […] The MIC was read per CLSI guidelines (6).

[6] = test system: S. pneumoniae (pneumococci); experiment: Broth microdilution MIC (Example 11); format: cell-based, Streptococcus pneumoniae; settings: pneumococci incl. multi-drug resistant
Aspergillus spp. = experiment: Broth microdilution MIC/MEC, mold (Example 13); format: cell-based; settings: for MEC (minimum effective concentration): read-out: MEC at 48 hr (MIC0 not observed)
Candida spp. = experiment: Broth microdilution MIC, yeast (Example 13), group statement and QC; format: cell-based; settings: C. parapsilosis ATCC 22019, footnote b not given
[7] = test system: Staphylococcus aureus (MRSA); experiment: Broth microdilution MIC (Example 11); format: cell-based; settings: MRSA, LevR, CipR, EryR, OxR
S. aureus ATCC 29213 = settings: CLSI established QC range; cited from earlier work
E. coli ATCC 25922 = settings: CLSI established QC range; cited from earlier work
[8] = Particle size distribution of BisEDT microparticles; format: physicochemical; settings: microparticles resuspended in 2% poloxamer 188, Nanosizer/Zetasizer Nano-S
Method: The dried particulate matter was characterized to assess the particle size properties. Briefly, microparticles were resuspended in 2% poloxamer 188 (Pluronic® F-68) (BASF, Mt. Olive, NJ) and the suspension was sonicated for 10 minutes in a water bath sonicator at standard setting prior to analysis using a Nanosizer/Zetasizer Nano-S particle analyzer (model ZEN1600 (without zeta-potential measuring capacity), Malvern Instruments, Worcestershire, UK) according to the manufacturer's recommendations.
It was observed that careful control of the reaction temperature and the rate of 1,2 ethanedithiol addition had pronounced impact on the BisEDT particle size distribution.

Question: Which MIC (Acinetobacter baumannii; Acinetobacter baumannii CDC 273, ESBL/OXA) does the source give for `C[C@@H](O)[C@H]1C(=O)N2C(C(=O)O)=C(S[C@@H]3CN[C@H](C(=O)N(C)C)C3)[C@H](C)[C@H]12` [MEM] here?
Answer: >8 µg/mL

Question: What about the MIC (Acinetobacter baumannii; Acinetobacter baumannii CDC 274, ESBL/OXA) of the same molecule?
Answer: >8 µg/mL

Question: What about the MIC (Acinetobacter baumannii; Acinetobacter baumannii CDC 275, ESBL/OXA) of the same molecule?
Answer: >8 µg/mL

Question: And the MIC (Acinetobacter baumannii; Acinetobacter baumannii CDC 277, ESBL/OXA)?
Answer: >8 µg/mL

Question: What about the MIC (Acinetobacter baumannii; Acinetobacter baumannii CDC 284, ESBL/OXA) of the same molecule?
Answer: >8 µg/mL

Question: And the MIC (Acinetobacter baumannii; Acinetobacter baumannii CDC 307, OXA)?
Answer: 8 µg/mL (≈ 20.9 µM)

Question: What about the MIC (Acinetobacter baumannii; Acinetobacter baumannii CDC 308, ESBL/OXA) of the same molecule?
Answer: 8 µg/mL (≈ 20.9 µM)

Question: And the MIC (Acinetobacter baumannii; Acinetobacter baumannii CDC 311, OXA)?
Answer: >8 µg/mL

Question: And the MIC (Acinetobacter baumannii; Acinetobacter baumannii CDC 312, OXA)?
Answer: 4 µg/mL (≈ 10.4 µM)

Question: And the MIC (Acinetobacter baumannii; Acinetobacter baumannii CDC 313, ESBL/OXA)?
Answer: >8 µg/mL

Question: And the MIC (Acinetobacter baumannii; Acinetobacter baumannii NCTC 13304, OXA)?
Answer: >8 µg/mL

Question: And the MIC (Pseudomonas aeruginosa [1]; P. aeruginosa ATCC 27853, QC organism)?
Answer: 0.25 µg/mL (≈ 0.652 µM)

Question: What about the MIC (Pseudomonas aeruginosa [1]; Pseudomonas aeruginosa CDC 230, VIM/OXA) of the same molecule?
Answer: >8 µg/mL

Question: And the MIC (Pseudomonas aeruginosa [1]; Pseudomonas aeruginosa CDC 231, KPC/OXA)?
Answer: >8 µg/mL

Question: What about the MIC (Pseudomonas aeruginosa [1]; Pseudomonas aeruginosa CDC 241, IMP/OXA) of the same molecule?
Answer: >8 µg/mL

Question: And the MIC (Pseudomonas aeruginosa [1]; Pseudomonas aeruginosa CDC 246, NDM/OXA)?
Answer: >8 µg/mL

Question: What about the MIC (Pseudomonas aeruginosa [1]; Pseudomonas aeruginosa CDC 250, NDM/OXA) of the same molecule?
Answer: >8 µg/mL

Question: And the MIC (Pseudomonas aeruginosa [1]; Pseudomonas aeruginosa CDC 356, KPC)?
Answer: >8 µg/mL

Question: What about the MIC (Pseudomonas aeruginosa [1]; Pseudomonas aeruginosa CDC 439, IMP) of the same molecule?
Answer: >8 µg/mL

Question: What about the MIC (Pseudomonas aeruginosa [1]; Pseudomonas aeruginosa CDC 444, VIM) of the same molecule?
Answer: >8 µg/mL

Question: And the MIC (Pseudomonas aeruginosa [1]; Pseudomonas aeruginosa CDC 457, VIM)?
Answer: >8 µg/mL

Question: And the MIC (Pseudomonas aeruginosa [1]; Pseudomonas aeruginosa CDC 516, KPC/AmpC)?
Answer: >8 µg/mL

Question: And the MIC (Pseudomonas aeruginosa [1]; Pseudomonas aeruginosa CDC 518, KPC/AmpC)?
Answer: >8 µg/mL

Question: And the “MIC, QC range” value (Klebsiella pneumoniae)?
Answer: (8-64) μg/mL

Question: Which “MIC values (range across isolates)” value [2] does the source give for `CC(S)C(C)S.[Bi]` (stereo not drawn) [BisBDT, bismuth-2,3-butanedithiol] here?
Answer: 0.25 to 1 µg/mL

Question: And the MIC (Pseudomonas aeruginosa [3])?
Answer: 1 µg/mL

Question: What about the MIC ([4]; S. agalactiae MMX 3741, ERY^R CC^R) of the same molecule?
Answer: 0.25 µg/mL

Question: And the MIC ([4]; S. agalactiae MMX 3743, ERY^R CC^R)?
Answer: 0.25 µg/mL

Question: What about the MIC ([4]; S. agalactiae MMX 4077, ERY^R CC^R) of the same molecule?
Answer: 0.25 µg/mL

Question: And the MIC ([4]; S. agalactiae MMX 4086, ERY^R CC^R)?
Answer: 0.25 µg/mL

Question: What about the “MIC values (range across isolates)” value ([4]; macrolide-resistant S. pyogenes, clindamycin-resistant S. agalactiae) of the same molecule?
Answer: 0.03 to 2 µg/mL

Question: What about the “MIC values (range across isolates)” value [5] of the same molecule?
Answer: 1 to 4 µg/mL

Question: And the “MIC values (range across isolates)” value [6]?
Answer: 0.5 to 8 µg/mL

Question: What about the MIC (Aspergillus spp.; 24 h, A. flavus ATCC 22546, 24 hr, read-out: MIC0 24 hr (complete inhibition)) of the same molecule?
Answer: 1 µg/mL

Question: What about the MIC (Aspergillus spp.; 24 h, A. flavus ATCC 204304, 24 hr, read-out: MIC0 24 hr (complete inhibition)) of the same molecule?
Answer: 4 µg/mL

Question: And the MIC (Aspergillus spp.; 24 h, A. flavus MMX 7935, 24 hr, read-out: MIC0 24 hr (complete inhibition))?
Answer: 8 µg/mL

Question: What about the MIC (Aspergillus spp.; 24 h, A. fumigatus ATCC 204305, 24 hr, read-out: MIC0 24 hr (complete inhibition)) of the same molecule?
Answer: 8 µg/mL

Question: And the MIC (Aspergillus spp.; 24 h, A. fumigatus ATCC MYA-3626, 24 hr, read-out: MIC0 24 hr (complete inhibition))?
Answer: 2 µg/mL

Question: What about the MIC (Aspergillus spp.; 24 h, A. fumigatus MMX 5934, 24 hr, read-out: MIC0 24 hr (complete inhibition)) of the same molecule?
Answer: 2 µg/mL

Question: And the MIC (Aspergillus spp.; 24 h, A. fumigatus MMX 5939, 24 hr, read-out: MIC0 24 hr (complete inhibition))?
Answer: 2 µg/mL

Question: What about the MIC (Aspergillus spp.; 24 h, read-out: MIC0 24 hr (complete inhibition), A. terreus MMX 8229, 24 hr) of the same molecule?
Answer: 0.25 µg/mL

Question: What about the MIC (Aspergillus spp.; 48 h, A. flavus ATCC 22546, 48 hr, read-out: MIC0 48 hr (complete inhibition)) of the same molecule?
Answer: 2 µg/mL

Question: What about the MEC (minimum effective concentration) (Aspergillus spp.; 48 h, A. flavus ATCC 204304, 48 hr) of the same molecule?
Answer: 4 µg/mL

Question: What about the MIC (Aspergillus spp.; 48 h, A. flavus MMX 7935, 48 hr, read-out: MIC0 48 hr (complete inhibition)) of the same molecule?
Answer: 8 µg/mL

Question: And the MEC (minimum effective concentration) (Aspergillus spp.; 48 h, A. fumigatus ATCC 204305, 48 hr)?
Answer: 4 µg/mL

Question: What about the MIC (Aspergillus spp.; 48 h, A. fumigatus ATCC MYA-3626, 48 hr, read-out: MIC0 48 hr (complete inhibition)) of the same molecule?
Answer: 4 µg/mL

Question: And the MEC (minimum effective concentration) (Aspergillus spp.; 48 h, A. fumigatus MMX 5934, 48 hr)?
Answer: 4 µg/mL

Question: What about the MEC (minimum effective concentration) (Aspergillus spp.; 48 h, A. fumigatus MMX 5939, 48 hr) of the same molecule?
Answer: 4 µg/mL

Question: And the MIC (Aspergillus spp.; 48 h, A. terreus MMX 8229, 48 hr, read-out: MIC0 48 hr (complete inhibition))?
Answer: 1 µg/mL

Question: And the MIC 24 hr (Aspergillus spp.; A. flavus ATCC 204304 (QC, Table 110), 24 hr)?
Answer: 4 µg/mL

Question: What about the “MIC 48 hr, marked with footnote c” value (Aspergillus spp.; A. flavus ATCC 204304 (QC, Table 110), 48 hr, footnote c not given, probably MEC) of the same molecule?
Answer: 4^c

Question: What about the MIC 24 hr (Aspergillus spp.; A. fumigatus ATCC MYA-3626 (QC, Table 110), 24 hr) of the same molecule?
Answer: 2 µg/mL

Question: And the MIC 48 hr (Aspergillus spp.; A. fumigatus ATCC MYA-3626 (QC, Table 110), 48 hr)?
Answer: 4 µg/mL

Question: What about the MIC (Aspergillus spp.; read-out: MIC0 48 hr (complete inhibition)) of the same molecule?
Answer: 2 µg/mL

Question: What about the “MIC 24 hr, second value of the pair x/y” value (Candida spp.; 24 hr) of the same molecule?
Answer: 2

Question: What about the “MIC 48 hr, second value of the pair x/y” value (Candida spp.; 48 hr) of the same molecule?
Answer: 4

Question: And the MIC ([7]; S. aureus MMX 5373, CCR)?
Answer: ≤0.06 µg/mL

Question: And the MIC ([7]; S. aureus MMX 6311, CCR)?
Answer: ≤0.06 µg/mL

Question: And the MIC ([7]; S. aureus MMX 9204)?
Answer: ≤0.06 µg/mL

Question: And the MIC ([7]; S. aureus MMX 9205, CCR)?
Answer: ≤0.06 µg/mL

Question: What does the source list for `C1C[S][Bi]([S]CC[S][Bi]2[S]CC[S]2)[S]1` [BisEDT, bismuth-1,2-ethanedithiol]?
Answer: QC Range 24 hr (S. aureus ATCC 29213): 0.12-1; QC Range 24 hr (E. coli ATCC 25922): 0.5-4; peak VMD [8]: about 1.3 microns
